35 compounds from patent publication US20070275967A1, “Pyrazolinols” (BAYER CROPSCIENCE AKTIENGESELLSCHAFT, priority 2003, published 2007) can be followed below.

Series [1] relates to caterpillars of the armyworm (Spodoptera frugiperda). Kind of series: Spodoptera frugiperda test (spray treatment). It is filed as in vivo. Conditions: for pest or weed control at 100 g/ha / pest or weed control at 500 g/ha: Spodoptera frugiperda, 168 h, after 7 d, spray treatment, read-out: Kill rate in % after 7 d; for pest or weed control at 100 g/ha: active compound concentration 100 g/ha; for activity (kill of caterpillars): corn leaf disks sprayed, populated with Spodoptera frugiperda caterpillars, result in words; for pest or weed control at 500 g/ha: active compound concentration 500 g/ha. How it is done: Spodoptera Frugiperda Test (Spray Treatment) [table] To produce a suitable preparation of active compound, 1 part by weight of active compound is mixed with, the stated amounts of solvents and emulsifier, and the concentrate is diluted with emulsifier-containing water to the desired concentration. Disks of corn leaves (Zea mays) are sprayed with a preparation of active compound of the desired concentration and, after they have dried, populated with caterpillars of the armyworm (Spodoptera frugiperda). After the desired period of time, the activity in % is determined. 100% means that all caterpillars have been killed; 0% means that none of the caterpillars have been killed.

The subject of series [2] is larvae of the mustard beetle (Phaedon cochleariae). Kind of series: Phaedon test (spray treatment). It is filed as in vivo. Particulars: for activity (kill of beetle larvae): Chinese cabbage disks sprayed, populated with Phaedon cochleariae larvae, result in words; for pest or weed control at 100 g/ha / pest or weed control at 500 g/ha: Phaedon cochleariae, 168 h, after 7 d, spray treatment, read-out: Kill rate in % after 7 d; for pest or weed control at 100 g/ha: active compound concentration 100 g/ha; for pest or weed control at 500 g/ha: active compound concentration 500 g/ha. The procedure: Phaedon Test (Spray Treatment) [table] To produce a suitable preparation of active compound, 1 part by weight of active compound is mixed with the stated amounts of solvents and emulsifier, and the concentrate is diluted with emulsifier-containing water to the desired concentration. Disks of Chinese cabbage (Brassica pekinensis) are sprayed with a preparation of active compound of the desired concentration and, once they have dried, populated with larvae of the mustard beetle (Phaedon cochleariae). After the desired period of time, the activity in % is determined. 100% means that all beetle larvae have been killed; 0% means that none of the beetle larvae have been killed.

A short description of series [3]: logP determination by HPLC on reversed-phase column (EEC Directive 79/831 Annex V.A8). It is filed as physicochemical. Conditions: acidic range (pH 2.3), marked a), 0.1% aqueous phosphoric acid/acetonitrile gradient, reversed-phase C 18, 43° C.; for chromatographic logP: reversed-phase C18 HPLC column. How it is done: The logP values given in the table were determined in accordance with EEC Directive 79/831 Annex V.A8 by HPLC (High Performance Liquid Chromatography) on a reversed-phase column (C 18). Temperature: 43° C. (a) Mobile phases for the determination in the acidic range (pH 2.3): 0.1% aqueous phosphoric acid, acetonitrile; linear gradient from 10% acetonitrile to 90% acetonitrile—the corresponding measurement results in table 1 are marked a). (b) Mobile phases for the determination in the neutral range (pH 7.5): 0.01-molar aqueous phosphate buffer solution, acetonitrile; linear gradient from 10% acetonitrile to 90% acetonitrile—the corresponding measurement results in table 1 are marked b). Calibration was carried out using unbranched alkan-2-ones (having 3 to 16 carbon atoms) with known logP values (determination of the logP values by the retention times using linear interpolation between two successive alkanones).

For series [4], the system named is greenhouse red spidermite (Tetranychus urticae). The series is described as follows: Tetranychus test (OP-resistant/spray treatment). It is filed as in vivo. Particulars: for pest or weed control at 500 g/ha / pest or weed control at 100 g/ha: Tetranychus urticae, 120 h, after 5 d, OP-resistant, spray treatment, read-out: Kill rate in % after 5 d; for pest or weed control at 500 g/ha: active compound concentration 500 g/ha; for activity (kill of spidermites): bean leaf disks infested by all stages of Tetranychus urticae (OP-resistant), sprayed, result in words; for pest or weed control at 100 g/ha: active compound concentration 100 g/ha. The procedure: Tetranychus Test (OP-Resistant/Spray Treatment)
To produce a suitable preparation of active compound, 1 part by weight of active compound is mixed with the stated amounts of solvents and emulsifier, and the concentrate is diluted with emulsifier-containing water to the desired concentration.
Disks of bean leaves (Phaseolus vulgaris) which are infested by all stages of the greenhouse red spidermite (Tetranychus urticae) are sprayed with a preparation of active compound of the desired concentration.
After the desired period of time, the activity in % is determined. 100% means that all spidermites have been killed; 0% means that none of the spidermites have been killed.

Turning to `CC(C)(C)C1=NN(C(=S)Nc2ccccc2)C(O)(C(F)(F)F)C1` (stereo not shown) [Example 63], in series [1], the pest or weed control at 100 g/ha was determined as 100% and the “activity (kill of caterpillars)” value is given as “good activity”. Also, in series [2], the “activity (kill of beetle larvae)” value is “good activity” and the pest or weed control at 100 g/ha came to 100%. Besides, the chromatographic logP (usually a lipophilicity value derived from retention on a column) in series [3] was 4.26.
In the case of `COc1ccccc1NC(=S)N1N=C(C(C)C)CC1(O)C(F)(F)F` (stereo not shown) [Example 30], in series [4], the pest or weed control at 500 g/ha came to 90% and the “activity (kill of spidermites)” value is given as “good activity”. Also, in series [2], the “activity (kill of beetle larvae)” value is “good activity” and the pest or weed control at 500 g/ha came out at 100%. In series [3], this compound gave a chromatographic logP of 4.23.
For `CC1=NN(C(=S)Nc2ccc(Cl)cc2Cl)C(O)(C(F)(F)F)C1` (stereo not shown) [Example 118], in series [4], the pest or weed control at 100 g/ha worked out at 90% and the “activity (kill of spidermites)” value is “good activity”. In series [3], this compound registered a chromatographic logP of 3.97.
Regarding `OC1(C(F)(F)F)CC(c2ccccc2)=NN1C(=S)Nc1ccc(Cl)cc1` (stereo not shown) [Example 83], in series [1], the pest or weed control at 500 g/ha was 100% and the “activity (kill of caterpillars)” value was “good activity”. Further, in series [3], the chromatographic logP was found to be 4.58.
For the compound `CC(C)(C)C1=NN(C(=S)NCc2ccc(Cl)cc2)C(O)(C(F)(F)F)C1` (stereo not shown) [Example 75], in series [1], the pest or weed control at 100 g/ha is 100% and the “activity (kill of caterpillars)” value was “good activity”. In series [4], the pest or weed control at 100 g/ha was 100% and the “activity (kill of spidermites)” value is on record as “good activity”. For the same compound, in series [2], the “activity (kill of beetle larvae)” value is recorded as “good activity” and the pest or weed control at 100 g/ha amounted to 100%. The compound also came in with a chromatographic logP in series [3] of 4.9.
`CC(C)(C)C1=NN(C(=S)Nc2ccc(OC(F)(F)F)cc2)C(O)(C(F)(F)F)C1` (stereo not shown) [Example 64]: in series [1], the pest or weed control at 100 g/ha was determined as 100% and the “activity (kill of caterpillars)” value is “good activity”. Moreover, in series [2], the “activity (kill of beetle larvae)” value was “good activity” and the pest or weed control at 100 g/ha is 100%. Also, in series [3], the chromatographic logP amounted to 4.94.
As to `CCC1=NN(C(=S)NCc2ccccc2Cl)C(O)(C(F)(F)F)C1` (stereo not shown) [Example 56], in series [4], the pest or weed control at 100 g/ha came to 90% and the “activity (kill of spidermites)” value is listed as “good activity”. Also, in series [2], the “activity (kill of beetle larvae)” value is on record as “good activity” and the pest or weed control at 500 g/ha is 100%. Besides, in series [3], the chromatographic logP came out at 4.25.
For `CC(C)(C)C1=NN(C(=S)NC2CCCCC2)C(O)(C(F)(F)F)C1` (stereo not shown) [Example 73], in series [1], the pest or weed control at 100 g/ha came out at 100% and the “activity (kill of caterpillars)” value is on record as “good activity”. In series [2], the “activity (kill of beetle larvae)” value is given as “good activity” and the pest or weed control at 100 g/ha is 100%.
In the case of `Cc1ccccc1NC(=S)N1N=C(C(C)C)CC1(O)C(F)(F)F` (stereo not shown) [Example 32], in series [1], the pest or weed control at 500 g/ha was 100% and the “activity (kill of caterpillars)” value is listed as “good activity”. Further, in series [2], the “activity (kill of beetle larvae)” value is “good activity” and the pest or weed control at 500 g/ha amounted to 100%. In series [3], this compound gave a chromatographic logP of 4.1.
Turning to `CCC1=NN(C(=S)Nc2ccc(Cl)cc2)C(O)(C(F)(F)F)C1` (stereo not shown) [Example 53], in series [2], the “activity (kill of beetle larvae)” value is given as “good activity” and the pest or weed control at 500 g/ha is 100%. The compound further showed a chromatographic logP in series [3] of 4.07.
`CC1=NN(C(=S)Nc2ccc(OC(F)(F)F)cc2)C(O)(C(F)(F)F)C1` (stereo not shown) [Example 106]: in series [4], the pest or weed control at 100 g/ha worked out at 100% and the “activity (kill of spidermites)” value is reported as “good activity”. This compound came in with a chromatographic logP in series [3] of 3.37.
On to `CC(C)(C)C1=NN(C(=O)NCc2ccccc2Cl)C(O)(C(F)(F)F)C1` (stereo not shown) [Example 72], for which the logP result in series [3] is “logP = 3.97^a)”.
On the same count and under the same terms, next, `COc1ccc(NC(=S)N2N=C(C)CC2(O)C(F)(F)F)cc1` (stereo not shown) [Example 102]: “logP = 3.10^a)”.
Turning to `CC(C)CC1=NN(C(=S)Nc2ccc(OC(F)(F)F)cc2)C(O)(C(F)(F)F)C1` (stereo not shown) [Example 22], in series [4], the pest or weed control at 500 g/ha was 90% and the “activity (kill of spidermites)” value is listed as “good activity”. In series [3], this compound returned a chromatographic logP of 4.42.
Consider `CC1=NN(C(=S)NCCc2ccc(Cl)cc2)C(O)(C(F)(F)F)C1` (stereo not shown) [Example 126], for which, in series [4], the pest or weed control at 100 g/ha came to 90% and the “activity (kill of spidermites)” value is recorded as “good activity”. Besides, in series [3], the chromatographic logP came to 4.24.
With `CC(C)(C)C1=NN(C(=O)Nc2ccc(Cl)cc2)C(O)(C(F)(F)C(F)(F)C(F)(F)F)C1` (stereo not shown) [Example 140], the logP result in series [3] is reported as “logP = 5.20^a)”.
On to `CCC1=NN(C(=S)Nc2ccc(F)cc2)C(O)(C(F)(F)F)C1` (stereo not shown) [Example 93], for which, in series [3], the logP result is “logP = 3.62^a)”.
Regarding `CCC1=NN(C(=S)Nc2ccc(C(C)(C)C)cc2)C(O)(C(F)(F)F)C1` (racemic) [Example 16], the logP result in series [3] was “logP = 4.84^a)”.
As for `CC(C)CC1=NN(C(=O)Nc2ccccc2)C(O)(C(F)(F)F)C1` (racemic) [Example 3], in series [3], the logP entry is “logP = 3.72^a)”.
For the compound `CC(C)CC1=NN(C(=O)Nc2ccc(Cl)cc2)C(O)(C(F)(F)F)C1` (racemic) [Example 5], the logP entry in series [3] is on record as “logP = 4.18^a)”.
`CC(C)C1=NN(C(=O)Nc2ccccn2)C(O)(C(F)(F)F)C1` (racemic) [Example 48]: the logP result in series [3] is “logP = 1.78^a)”.
The same measure, in the same setting: the entry for `CC(C)(C)C1=NN(C(=S)NCc2ccc(Cl)cc2)C(O)(C(Cl)(Cl)Cl)C1` (stereo not shown) [Example 130] is “logP = 2.72^a)”; for `CC(C)C1=NN(C(=O)Nc2cccnc2)C(O)(C(F)(F)F)C1` (racemic) [Example 47] it is “logP = 1.15^a)”.
Turning to `CCC1=NN(C(=O)Nc2ccc(C#N)cc2)C(O)(C(F)(F)F)C1` (stereo not shown) [Example 51], the logP entry in series [3] is on record as “logP = 2.65^a)”.
In the case of `CC(C)(C)C1=NN(C(=O)Nc2ccc(C#N)cc2)C(O)(C(F)(F)F)C1` (stereo not shown) [Example 60], the logP result in series [3] is “logP = 3.34^a)”.
In the case of `CCC1=NN(C(=S)Nc2ccccc2F)C(O)(C(F)(F)F)C1` (stereo not shown) [Example 98], the logP entry in series [3] is listed as “logP = 3.51^a)”.
`CC(C)(C)C1=NN(C(=O)Nc2ccc(Cl)cc2)C(O)(C(F)F)C1` (stereo not shown) [Example 144]: the logP entry in series [3] is on record as “logP = 3.72^a)”.
Turning to `CC(C)(C)C1=NN(C(=S)Nc2ccc(Cl)cc2)C(O)(C(F)F)C1` (stereo not shown) [Example 142], the logP result in series [3] is given as “logP = 4.50^a)”.
Regarding `CC(C)(C)C1=NN(C(=O)NCc2ccc(Cl)cc2)C(O)(C(F)(F)F)C1` (stereo not shown) [Example 71], the logP result in series [3] is on record as “logP = 3.94^a)”.
As for `CC1=NN(C(=O)Nc2ccc(Cl)c(Cl)c2)C(O)(C(F)(F)F)C1` (stereo not shown) [Example 116], the logP entry in series [3] is “logP = 3.84^a)”.
For `OC1(C(F)(F)F)CC(C2(Cl)CC2)=NN1C(=S)Nc1ccc(Cl)cc1` (stereo not shown) [Example 79], the logP entry in series [3] is given as “logP = 4.36^a)”.
On the same count and under the same terms, next, `CCC1=NN(C(=S)Nc2ccc(Cl)c(Cl)c2)C(O)(C(F)(F)F)C1` (stereo not shown) [Example 96]: “logP = 4.61^a)”; `CC(C)C1=NN(C(N)=S)C(O)(C(F)(F)F)C1` (racemic) [Example 45]: “logP = 2.47^a)”; `CCC1=NN(C(=O)Nc2cc(Cl)cc(Cl)c2)C(O)(C(F)(F)F)C1` (stereo not shown) [Example 76]: “logP = 4.34^a)”.
The same measure, in the same setting: the entry for `CC(C)CC1=NN(C(=S)Nc2ccc(C(C)(C)C)cc2)C(O)(C(F)(F)F)C1` (racemic) [Example 25] is “logP = 5.50^a)”.
